This is an account of results in patent publication US20230250129A1, “NEUROACTIVE STEROIDS AND COMPOSITIONS THEREOF” (Sage Therapeutics, Inc., priority 2020, published 2023).

This assay deals with [35S]-TBPS binding, rat brain cortical membranes (GABAA receptor). Description: Steroid inhibition of [35S]-TBPS binding. The conditions noted are these: 3 nM [35S]-TBPS, in the presence of 5 mM GABA, 90 min at room temp. As to the method: Steroid Inhibition of TBPS Binding
[^35S]-t-Butylbicyclophosphorothionate (TBPS) binding assays using rat brain cortical membranes in the presence of 5 mM GABA has been described (Gee et al, J. Pharmacol. Exp. Ther. 1987, 241, 346-353; Hawkinson et al, Mol. Pharmacol. 1994, 46, 977-985; Lewin, A. H et al., Mol. Pharmacol. 1989, 35, 189-194).
Briefly, cortices are rapidly removed following decapitation of carbon dioxide-anesthetized Sprague-Dawley rats (200-250 g). The cortices are homogenized in 10 volumes of ice-cold 0.32 M sucrose using a glass/teflon homogenizer and centrifuged at 1500×g for 10 min at 4° C. The resultant supernatants are centrifuged at 10,000×g for 20 min at 4° C. to obtain the P2 pellets. The P2 pellets are resuspended in 200 mM NaCl/50 mM Na—K phosphate pH 7.4 buffer and centrifuged at 10,000×g for 10 min at 4° C. This washing procedure is repeated twice and the pellets are resuspended in 10 volumes of buffer. Aliquots ([…]) of the membrane suspensions are incubated with 3 nM [^35S]-TBPS and […] aliquots of test drug dissolved in dimethyl sulfoxide (DMSO) (final 0.5%) in the presence of 5 mM GABA. The incubation is brought to a final volume of 1.0 mL with buffer. Nonspecific binding is determined in the presence of […] and ranged from 15 to 25%. Following a 90 min incubation at room temp, the assays are terminated by filtration through glass fiber filters (Schleicher and Schuell No. 32) using a cell harvester (Brandel) and rinsed three times with ice-cold buffer. Filter bound radioactivity is measured by liquid scintillation spectrometry. Non-linear curve fitting of the overall data for each drug averaged for each concentration is done using Prism (GraphPad). […] The concentration of test compound producing 50% inhibition (IC50) of specific binding and the maximal extent of inhibition (Imax) are determined for the individual experiments with the same model used for the overall data and then the means±SEM.s of the individual experiments are calculated.
Various compounds are or can be screened to determine their potential as modulators of [^35S]-TBPS binding in vitro. These assays are or can be performed in accordance with the above

Regarding `CCC[C@@]1(O)CC[C@H]2[C@H](CC[C@@H]3[C@@H]2CC[C@]2(C)[C@@H](C(=O)Nc4cnc(C#N)cn4)CC[C@@H]32)C1` [Compound 69, (3R,5R,8R,9R,10S,13S,14S,17S)—N-(5-cyanopyrazin-2-yl)-3-hydroxy-13-methyl-3-propylhexadecahydro-1H-cyclopenta[a]phenanthrene-17-carboxamide], the concentration for half-maximal inhibition (IC50) is less than 0.1 µM. Take `COC[C@@]1(O)CC[C@@]2(C)[C@H](CC[C@@H]3[C@@H]2CC[C@]2(C)[C@@H](C(=O)Nc4ccc(C#N)cn4)CC[C@@H]32)C1` [Compound 70, (3R,5R,8R,9S,10S,13S,14S,17S)—N-(5-cyanopyridin-2-yl)-3-hydroxy-3-(methoxymethyl)-10,13-dimethylhexadecahydro-1H-cyclopenta[a]phenanthrene-17-carboxamide]: the half-maximal inhibitory concentration (IC50) was less than 0.1 µM. For `COC[C@@]1(O)CC[C@H]2[C@H](CC[C@@H]3[C@@H]2CC[C@]2(C)[C@@H](C(=O)Nc4ccc(C#N)cn4)CC[C@@H]32)C1` [Compound 71, (3R,5R,8R,9R,10S,13S,14S,17S)—N-(5-cyanopyridin-2-yl)-3-hydroxy-3-(methoxymethyl)-13-methylhexadecahydro-1H-cyclopenta[a]phenanthrene-17-carboxamide], the half-maximal inhibitory concentration (IC50) was less than 0.1 µM.

On to `COC[C@@]1(O)CC[C@@]2(C)[C@H](CC[C@@H]3[C@@H]2CC[C@]2(C)[C@@H](C(=O)Nc4cnc(C#N)cn4)CC[C@@H]32)C1` [Compound 72, (3R,5R,8R,9S,10S,13S,14S,17S)—N-(5-cyanopyrazin-2-yl)-3-hydroxy-3-(methoxymethyl)-10,13-dimethylhexadecahydro-1H-cyclopenta[a]phenanthrene-17-carboxamide], for which the IC50 is less than 0.1 µM. The figure for `COC[C@@]1(O)CC[C@H]2[C@H](CC[C@@H]3[C@@H]2CC[C@]2(C)[C@@H](C(=O)Nc4cnc(C#N)cn4)CC[C@@H]32)C1` [Compound 73, (3R,5R,8R,9R,10S,13S,14S,17S)—N-(5-cyanopyrazin-2-yl)-3-hydroxy-3-(methoxymethyl)-13-methylhexadecahydro-1H-cyclopenta[a]phenanthrene-17-carboxamide] is less than 0.1 µM. On to `CCC[C@@]1(O)CC[C@@]2(C)[C@H](CC[C@@H]3[C@@H]2CC[C@]2(C)[C@@H](C(=O)Nc4cnc(C#N)cn4)CC[C@@H]32)C1` [Compound 74, (3R,5R,8R,9S,10S,13S,14S,17S)—N-(5-cyanopyrazin-2-yl)-3-hydroxy-10,13-dimethyl-3-propylhexadecahydro-1H-cyclopenta[a]phenanthrene-17-carboxamide], for which the concentration for half-maximal inhibition (IC50) was less than 0.1 µM. Consider `CCOC[C@@]1(O)CC[C@@]2(C)[C@H](CC[C@@H]3[C@@H]2CC[C@]2(C)[C@@H](C(=O)Nc4cnc(C#N)cn4)CC[C@@H]32)C1` [Compound 75, (3R,5R,8R,9S,10S,13S,14S,17S)—N-(5-cyanopyrazin-2-yl)-3-(ethoxymethyl)-3-hydroxy-10,13-dimethylhexadecahydro-1H-cyclopenta[a]phenanthrene-17-carboxamide], for which the IC50 is less than 0.1 µM. The figure for `CCOC[C@@]1(O)CC[C@H]2[C@H](CC[C@@H]3[C@@H]2CC[C@]2(C)[C@@H](C(=O)Nc4cnc(C#N)nc4)CC[C@@H]32)C1` [Compound 76, (3R,5R,8R,9R,10S,13S,14S,17S)—N-(2-cyanopyrimidin-5-yl)-3-(ethoxymethyl)-3-hydroxy-13-methylhexadecahydro-1H-cyclopenta[a]phenanthrene-17-carboxamide] is less than 0.1 µM; for `CCOC[C@@]1(O)CC[C@H]2[C@H](CC[C@@H]3[C@@H]2CC[C@]2(C)[C@@H](C(=O)Nc4cc(C#N)ncn4)CC[C@@H]32)C1` [Compound 77, (3R,5R,8R,9R,10S,13S,14S,17S)—N-(6-cyanopyrimidin-4-yl)-3-(ethoxymethyl)-3-hydroxy-13-methylhexadecahydro-1H-cyclopenta[a]phenanthrene-17-carboxamide] it is less than 0.1 µM.

Consider `CCOC[C@@]1(O)CC[C@H]2[C@H](CC[C@@H]3[C@@H]2CC[C@]2(C)[C@@H](C(=O)Nc4ccnc(C#N)n4)CC[C@@H]32)C1` [Compound 78, (3R,5R,8R,9R,10S,13S,14S,17S)—N-(2-cyanopyrimidin-4-yl)-3-(ethoxymethyl)-3-hydroxy-13-methylhexadecahydro-1H-cyclopenta[a]phenanthrene-17-carboxamide], for which the 50% inhibitory concentration (IC50) was less than 0.1 µM. The figure for `CCOC[C@@]1(O)CC[C@H]2[C@H](CC[C@@H]3[C@@H]2CC[C@]2(C)[C@@H](C(=O)Nc4nccc(C#N)n4)CC[C@@H]32)C1` [Compound 79, (3R,5R,8R,9R,10S,13S,14S,17S)—N-(4-cyanopyrimidin-2-yl)-3-(ethoxymethyl)-3-hydroxy-13-methylhexadecahydro-1H-cyclopenta[a]phenanthrene-17-carboxamide] is 0.1 to 1 µM; for `CCC[C@@]1(O)CC[C@H]2[C@H](CC[C@@H]3[C@@H]2CC[C@]2(C)[C@@H](C(=O)Nc4ccc(F)cn4)CC[C@@H]32)C1` [Compound 81, (3R,5R,8R,9R,10S,13S,14S,17S)—N-(5-fluoropyridin-2-yl)-3-hydroxy-13-methyl-3-propylhexadecahydro-1H-cyclopenta[a]phenanthrene-17-carboxamide] it is less than 0.1 µM. The same measure for `CCOC[C@@]1(O)CC[C@H]2[C@H](CC[C@@H]3[C@@H]2CC[C@]2(C)[C@@H](C(=O)Nc4ncc(C#N)cn4)CC[C@@H]32)C1` [Compound 82, (3R,5R,8R,9R,10S,13S,14S,17S)—N-(5-cyanopyrimidin-2-yl)-3-(ethoxymethyl)-3-hydroxy-13-methylhexadecahydro-1H-cyclopenta[a]phenanthrene-17-carboxamide]: 0.1 to 1 µM; for `CCC[C@@]1(O)CC[C@H]2[C@H](CC[C@@H]3[C@@H]2CC[C@]2(C)[C@@H](C(=O)Nc4cncc(C#N)n4)CC[C@@H]32)C1` [Compound 83, (3R,5R,8R,9R,10S,13S,14S,17S)—N-(6-cyanopyrazin-2-yl)-3-hydroxy-13-methyl-3-propylhexadecahydro-1H-cyclopenta[a]phenanthrene-17-carboxamide]: less than 0.1 µM; for `CCC[C@@]1(O)CC[C@H]2[C@H](CC[C@@H]3[C@@H]2CC[C@]2(C)[C@@H](C(=O)Nc4cc(C#N)ncn4)CC[C@@H]32)C1` [Compound 84, (3R,5R,8R,9R,10S,13S,14S,17S)—N-(6-cyanopyrimidin-4-yl)-3-hydroxy-13-methyl-3-propylhexadecahydro-1H-cyclopenta[a]phenanthrene-17-carboxamide]: less than 0.1 µM.

Take `C[C@H]1C[C@H]2[C@H](CC[C@@H]3[C@@H]2CC[C@]2(C)[C@@H](C(=O)Nc4ccc(C#N)nc4)CC[C@@H]32)C[C@]1(C)O` [Compound 85, (2S,3S,5R,8R,9R,10S,13S,14S,17S)—N-(6-cyanopyridin-3-yl)-3-hydroxy-2,3,13-trimethylhexadecahydro-1H-cyclopenta[a]phenanthrene-17-carboxamide]: the concentration for half-maximal inhibition (IC50) is less than 0.1 µM.

As for `CCC[C@@]1(O)CC[C@H]2[C@H](CC[C@@H]3[C@@H]2CC[C@]2(C)[C@@H](C(=O)Nc4cnc(C#N)nc4)CC[C@@H]32)C1` [Compound 86, (3R,5R,8R,9R,10S,13S,14S,17S)—N-(2-cyanopyrimidin-5-yl)-3-hydroxy-13-methyl-3-propylhexadecahydro-1H-cyclopenta[a]phenanthrene-17-carboxamide], the IC50 is 0.1 to 1 µM. The figure for `CCC[C@@]1(O)CC[C@H]2[C@H](CC[C@@H]3[C@@H]2CC[C@]2(C)[C@@H](C(=O)Nc4ccnc(C#N)n4)CC[C@@H]32)C1` [Compound 87, (3R,5R,8R,9R,10S,13S,14S,17S)—N-(2-cyanopyrimidin-4-yl)-3-hydroxy-13-methyl-3-propylhexadecahydro-1H-cyclopenta[a]phenanthrene-17-carboxamide] is less than 0.1 µM; for `C[C@H]1C[C@H]2[C@H](CC[C@@H]3[C@@H]2CC[C@]2(C)[C@@H](C(=O)Nc4cnc(C#N)cn4)CC[C@@H]32)C[C@]1(C)O` [Compound 88, (2S,3S,5R,8R,9R,10S,13S,14S,17S)—N-(5-cyanopyrazin-2-yl)-3-hydroxy-2,3,13-trimethylhexadecahydro-1H-cyclopenta[a]phenanthrene-17-carboxamide] it is less than 0.1 µM.

For orientation: IC50 means the concentration that gives 50% inhibition.
